Assay results from US20260078110A1, “SESTERTERPENOID COMPOUNDS AND EXTRACT L01 OF LEUCOSCEPTRUM CANUM, AND USE THEREOF IN TREATMENT OF PSORIASIS” (Kunming Institute of Botany, CAS, priority 2023, published 2026).

Assays:
[1] = system: pro-inflammatory cytokine IFN-γ secretion by mouse T cells stimulated by CD3/CD28 monoclonal antibodies; test: Inhibition of IFN-γ secretion by mouse T cells stimulated by CD3/CD28 monoclonal antibodies (ELISA); type: cell-based; conditions: T-cell, 48 h, C57BL/6 mouse T cells, CD3/CD28 mAb stimulation; for inhibition at 20 µM: read-out: Inhibitory rate (%, 20 μM)
Procedure: CD3, CD28 monoclonal antibodies, and kit for IFN-γ detection were purchased from BD Bioscience, Cell Counting Kit-8 (CCK-8) was purchased from MeilunBio®, and RPMI-1640 medium and fetal bovine serum were purchased from Biological Industries.
Preparation of samples to be tested: the 12 compounds of Example 1 were dissolved in DMSO, respectively to prepare 20 mM stock solutions.
Splenocytes were aseptically isolated from 6-8 week old female C57BL/6 mice, and T cells were isolated using a nylon wool column method. The T cells were then inoculated (4×10^5 cells/well) in a 96-well plate (which was coated with 5 μg/mL of CD3 monoclonal antibody). At the same time, a prepared compound solution of 40 μM, 20 μM, 10 μM, 5 μM, 2.5 μM, or 1.25 μM along with a 2 μg/mL solution of CD28 monoclonal antibody were added into each group, respectively, which were cultured in a 37° C./5% CO2 incubator. After 48 h, the supernatant of the cells was collected and the IFN-γ secretion in the supernatant was detected by an Enzyme-Linked Immuno-Sorbent Assay (ELISA); 10 μL of CCK-8 solution was added into each well, and OD450 was measured after incubation at 37° C. for 4 h to evaluate cell proliferation. […] The inhibitory activity of the compounds on IFN-γ was calculated, and the half-maximal inhibitory concentration (IC50) was analyzed using GraphPadPrism software.

[2] = system: imiquimod-induced psoriasis mice; test: In vivo anti-psoriasis activity test on sesterterpenoid compound 6 (imiquimod-induced psoriasis mouse model); conditions: 25 and 50 mg/kg intraperitoneal injection, day 1 to 6
Procedure: Establishment and pharmacodynamic study of a mouse model of imiquimod-induced psoriasis: the mice were randomly divided into a control group, a model group, a methotrexate (MTX) treatment (1 mg/kg) group, and Leucosceptrum canum sesterterpenoid treatment (50 mg/kg, 150 mg/kg, 450 mg/kg) groups, with 6 mice in each group. The mice were depilated on their backs before the experiment, and 62.5 mg of […] imiquimod cream was evenly applied on the backs of mice while an equivalent amount of Vaseline was applied on the backs of mice in the normal control group from the 1st day, the application was performed once a day for 6 d. From the 1st day 1 to the 6th day, each treatment group was given the drug by gavage. During the experiment, the mice were weighed and scored for the Psoriasis Area and Severity Index (PASI) according to the following criteria: 0 points, normal skin without erythema and scales; 1 point, mild erythema, a few fine scales, and the skin at the lesion being slightly higher than normal skin; 2 points, moderate red plaques, the surface of the lesions being covered with scales, and the lesions being flaky or moderately raised; 3 points, severe dark red plaques, almost all the lesions being covered with thick scales or obvious lesions; 4 points, extremely severe and dark red plaques, all lesions being covered with highly thick layered scales, and the thickening and protrusion of the lesions being extremely obvious. After the experiment, the back skin of the mice was taken to make pathological sections. The levels of pro-inflammatory cytokines IFN-γ and IL-17A in mouse serum were detected by ELISA.
A method for establishing the imiquimod-induced psoriasis mouse model was the same as that in Example 4. The mice were randomly divided into a control group, a model group, a methotrexate (MTX) treatment group (1 mg/kg), and compound 6 treatment groups (25 and 50 mg/kg), with 6 mice in each group. From the 1st day to the 6th day, drugs were given to each treatment group by intraperitoneal injection. During the experiment, the mice were weighed and scored for PASI. After the experiment, the back skin of the mice was taken to make pathological sections. The levels of pro-inflammatory cytokines IFN-γ and IL-17A in mouse serum were detected by ELISA.

| Compound | inhibition at 20 µM [1] [%] | further results |
| --- | --- | --- |
| CC1=C[C@@]2(O)[C@@](O)(OC1)[C@@H](C)[C@@H]1CC[C@H](C)[C@H]1[C@]2(O)C(=O)[C@H](C)CC(=O)c1occc1C [Compound 7] | 36.2 ± 8.27 | – |
| COC1(CC[C@@H](C)C(=O)[C@@]2(O)[C@H]3[C@@H](CC[C@@H]3C)[C@H](C)[C@]3(O)OCC(C)=C[C@@]32O)OC(=O)C=C1C (some centres unmarked) [Compound 9] | 39.6 ± 7.93 | – |
| CC(C)=C[C@]1(O)C(=O)[C@@H](C)[C@@H]2CC[C@H](C)[C@H]2[C@]1(O)C(=O)[C@H](C)CC[C@@H]1OC(=O)C=C1C [Compound 1] | 32.1 ± 5.46 | – |
| CC1=C[C@@]2(O)[C@@](O)(OC1)[C@@H](C)[C@@H]1CC[C@H](C)[C@H]1[C@@]2(O)C(=O)[C@H](C)C[C@H]1C(=O)C(C)=C[C@@H]1O [Compound 11] | 23.4 ± 1.24 | – |
| CC(C)=C[C@]1(O)C(=O)[C@@H](C)[C@@H]2CC[C@H](C)[C@H]2[C@@]1(O)C(=O)[C@H](C)CCc1occc1C [Compound 3] | 30.5 ± 6.55 | – |
| CC1=C[C@@]2(O)[C@@](O)(OC1)[C@@H](C)[C@@H]1CC[C@H](C)[C@H]1[C@]2(O)C(=O)[C@H](C)CCc1occc1C [Compound 6] | 66.8 ± 3.02 | IC50 [1]: 5.74 µM; level of IFN-γ in the serum of psoriasis mice (FIG. 10A-10B, ELISA) [2]: significantly reduces; level of IL-17A in the serum of psoriasis mice (FIG. 10A-10B, ELISA) [2]: significantly reduces; pathological damage of the skin tissue of psoriasis mice (FIG. 9, HE staining) [2]: significantly inhibits; symptoms of psoriasis in mice (FIG. 8) [2]: significantly improves |
| COC1C=C(C)C(CC[C@@H](C)C(=O)[C@@]2(O)[C@H]3[C@@H](CC[C@@H]3C)[C@H](C)[C@]3(O)OCC(C)=C[C@@]32O)(OC)O1 (some centres unmarked) [Compound 10] | 10.4 ± 3.02 | – |
| CC[C@@H](C)C(=O)[C@@]1(O)[C@H]2[C@@H](CC[C@@H]2C)[C@H](C)[C@]2(O)OCC(C)=C[C@@]21O [Compound 4] | 26.7 ± 5.85 | – |
| CC(C)=C[C@]1(O)C(=O)[C@@H](C)[C@@H]2CC[C@H](C)[C@H]2[C@@]1(O)C(=O)[C@H](C)CC[C@@H]1OC(=O)C=C1C [Compound 2] | 51.3 ± 7.1 | – |
| CC1=C[C@@]2(O)[C@@](O)(OC1)[C@@H](C)[C@@H]1CC[C@H](C)[C@H]1[C@@]2(O)C(=O)[C@@H](C)C[C@H]1C(=O)C(C)=C[C@@H]1O [Compound 12] | 33.8 ± 2.27 | – |
| CC1=C[C@@]2(O)[C@@](O)(OC1)[C@@H](C)[C@@H]1CC[C@H](C)[C@H]1[C@]2(O)C(=O)[C@H](C)CCC1=C(C)CC(=O)O1 [Compound 8] | 43.1 ± 7.35 | – |
| CC1=C[C@@]2(O)[C@@](O)(OC1)[C@@H](C)[C@@H]1CC[C@H](C)[C@H]1[C@]2(O)C(=O)[C@H](C)CCO [Compound 5] | 10.7 ± 2.74 | – |
